In general, IC50 refers to the concentration that gives 50% inhibition. A high value points to lower potency.

Our source for the IC50 values is ChEMBL document CHEMBL1147476, “Synthesis and evaluation of aminophosphinic acid derivatives as inhibitors of renal dipeptidase” (Bioorg Med Chem Lett, 2004).

Molecules are shown by their SMILES.

In this assay the target is T1, Dipeptidase 1 (Homo sapiens, UniProt P16444).
T1 sequence (P16444 whole entry): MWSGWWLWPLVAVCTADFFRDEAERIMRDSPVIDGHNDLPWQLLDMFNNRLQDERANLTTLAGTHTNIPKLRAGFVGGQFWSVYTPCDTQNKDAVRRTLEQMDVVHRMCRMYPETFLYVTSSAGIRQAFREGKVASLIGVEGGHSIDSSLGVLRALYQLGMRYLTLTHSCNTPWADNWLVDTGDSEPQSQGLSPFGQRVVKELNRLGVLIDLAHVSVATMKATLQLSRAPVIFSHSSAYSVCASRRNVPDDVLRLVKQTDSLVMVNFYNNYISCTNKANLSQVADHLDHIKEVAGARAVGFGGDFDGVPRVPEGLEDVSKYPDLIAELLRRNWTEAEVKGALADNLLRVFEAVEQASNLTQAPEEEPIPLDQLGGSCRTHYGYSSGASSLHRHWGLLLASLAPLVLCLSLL
Nature of the assay: Concentration required to inhibit renal dipeptidase (RDP) by 50% in crude lysates prepared from human colon cancer.
For `NC(CC1CCCCC1)P(=O)(O)C/C(=C\c1ccc(Br)cc1)C(=O)O` (centres undefined), the half-maximal inhibitory concentration (IC50) was 6 nM.
To `NC(CC1CCCCC1)P(=O)(O)C/C(=C/c1cccc(I)c1)C(=O)O` (centres undefined) belongs 250 nM; to `NC(CC1CCCCC1)P(=O)(O)C/C(=C/c1ccc(F)c(Br)c1)C(=O)O` (centres undefined), 3000 nM; to `NC(CC1CCCCC1)P(=O)(O)C/C(=C/c1ccc(F)cc1)C(=O)O` (centres undefined), 15 nM.
Consider `NC(CC1CCCCC1)P(=O)(O)C/C(=C/c1ccc(Cl)c(Cl)c1)C(=O)O` (centres undefined), for which the IC50 is 200 nM.
For the molecule `Nc1ccc(/C=C(\CP(=O)(O)C(N)CC2CCCCC2)C(=O)O)cc1` (centres undefined), the IC50 was 70 nM.
For `NC(CC1CCCCC1)P(=O)(O)C/C(=C/c1ccc(F)c(Cl)c1)C(=O)O` (centres undefined), 350 nM corresponded to half-maximal inhibition (IC50).
The molecule `NC(CC1CCCCC1)P(=O)(O)C/C(=C\c1ccc(F)cc1)C(=O)O` (centres undefined) displayed an IC50 of 5 nM.
The molecule `Nc1ccc(/C=C(/CP(=O)(O)C(N)CC2CCCCC2)C(=O)O)cc1` (centres undefined) returned an IC50 of 150 nM.
The result for `NC(CC1CCCCC1)P(=O)(O)C/C(=C/c1ccc(Br)cc1)C(=O)O` (centres undefined) reads 30 nM; that for `NC(CC1CCCCC1)P(=O)(O)C/C(=C\c1cccc(I)c1)C(=O)O` (centres undefined), 45 nM.
To `NC(CC1CCCCC1)P(=O)(O)C/C(=C\c1ccccc1I)C(=O)O` (centres undefined) belongs 100 nM.
The result for `NC(CC1CCCCC1)P(=O)(O)C/C(=C\c1ccc(I)cc1)C(=O)O` (centres undefined) reads 8 nM; that for `NC(CC1CCCCC1)P(=O)(O)C/C(=C/c1ccccc1I)C(=O)O` (centres undefined), 1000 nM.
`NC(CC1CCCCC1)P(=O)(O)C/C(=C\c1ccc(F)c(Br)c1)C(=O)O` (centres undefined) showed an IC50 of 40 nM.
On to `NC(CC1CCCCC1)P(=O)(O)C/C(=C\c1ccc(Cl)c(Cl)c1)C(=O)O` (centres undefined), for which the IC50 stood at 20 nM.
`NC(CC1CCCCC1)P(=O)(O)C/C(=C\c1ccc(F)c(Cl)c1)C(=O)O` (centres undefined) showed an IC50 of 30 nM.
`NC(CC1CCCCC1)P(=O)(O)C/C(=C/c1ccc(I)cc1)C(=O)O` (centres undefined) gave an IC50 of 25 nM.
On to `NC(CC1CCCCC1)P(=O)(O)C/C(=C/c1ccc(C(F)(F)F)cc1)C(=O)O` (centres undefined), for which the IC50 was 200 nM.
